Measurements published in US11542255B2, “Sulfonylureas and sulfonylthioureas as NLRP3 inhibitors” (Inflazome Limited, priority 2017, dated 2023).
pIC50: −log10 of the molar value. Counter-ions that a name gives are not always drawn.

Assays:
[1] = target: T1, NLRP3 (Homo sapiens, UniProt Q96P20); assay: Human whole blood IL1β release assay (LPS + nigericin, AlphaLisa IL-1β); type: cell-based; design: Human whole blood in Li-heparin tubes was obtained from healthy donors from a volunteer donor panel; from tissue; host or cells: human whole blood from healthy donors; details: NLRP3 inhibitory activity, 1 μg/ml LPS, 10 μM nigericin, IL-1β release, read-out: HWB IC50
T1 sequence (Q96P20 whole entry): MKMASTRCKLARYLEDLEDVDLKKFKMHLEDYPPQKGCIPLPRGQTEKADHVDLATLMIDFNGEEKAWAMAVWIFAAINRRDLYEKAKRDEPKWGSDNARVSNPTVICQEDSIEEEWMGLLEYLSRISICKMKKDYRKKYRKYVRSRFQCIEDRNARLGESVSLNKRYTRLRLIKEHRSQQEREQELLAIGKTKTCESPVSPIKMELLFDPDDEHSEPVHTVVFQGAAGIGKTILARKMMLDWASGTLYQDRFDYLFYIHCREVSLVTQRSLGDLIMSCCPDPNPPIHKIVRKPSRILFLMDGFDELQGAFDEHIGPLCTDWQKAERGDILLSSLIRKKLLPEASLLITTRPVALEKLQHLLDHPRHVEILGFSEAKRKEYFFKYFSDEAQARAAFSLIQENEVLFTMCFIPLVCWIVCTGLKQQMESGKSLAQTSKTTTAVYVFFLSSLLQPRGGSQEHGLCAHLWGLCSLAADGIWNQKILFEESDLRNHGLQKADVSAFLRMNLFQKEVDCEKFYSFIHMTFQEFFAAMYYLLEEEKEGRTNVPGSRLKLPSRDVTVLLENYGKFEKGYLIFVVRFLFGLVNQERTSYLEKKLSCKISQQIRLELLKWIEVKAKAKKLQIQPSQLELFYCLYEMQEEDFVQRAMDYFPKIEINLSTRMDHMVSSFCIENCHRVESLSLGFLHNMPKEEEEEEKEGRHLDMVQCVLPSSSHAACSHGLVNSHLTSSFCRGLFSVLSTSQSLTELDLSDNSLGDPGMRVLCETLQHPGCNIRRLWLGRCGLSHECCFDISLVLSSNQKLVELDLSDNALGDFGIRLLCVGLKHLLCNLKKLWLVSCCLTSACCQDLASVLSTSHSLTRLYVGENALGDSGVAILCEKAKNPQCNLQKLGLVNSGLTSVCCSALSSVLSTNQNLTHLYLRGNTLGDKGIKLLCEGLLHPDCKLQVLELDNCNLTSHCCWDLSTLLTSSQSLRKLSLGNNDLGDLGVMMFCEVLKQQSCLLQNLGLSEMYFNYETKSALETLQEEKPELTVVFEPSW
Method: For systemic delivery, the ability to inhibit NLRP3 when the compounds are present within the bloodstream is of great importance. For this reason, the NLRP3 inhibitory activity of a number of compounds in human whole blood was investigated in accordance with the following protocol.
Human whole blood in Li-heparin tubes was obtained from healthy donors from a volunteer donor panel. • 1. Plate out 80 μl of whole blood containing 1 μg/ml of LPS in 96-well, clear bottom cell culture plate (Corning #3585) • 2. Add 10 μl compound (8 points half-log dilution with 10 μM top dose) or vehicle (DMSO 0.1% FAC) to the appropriate wells • 3. Incubate for 3 hrs at 37° C., 5% CO2 • 4. Add 10 μl Nigericin (Sigma #N7143) (10 μM FAC) to all wells • 5. Incubate for 1 hr at 37° C., 5% CO2 • 6. At the end of the incubation period, spin plates at 300×g for 5 mins to pellet cells and remove 20 μl of supernatant and add to 96-well v-bottom plates for IL-1β analysis (note: these plates containing the supernatants can be stored at −80° C. to be analysed at a later date) • 7. IL-1β was measured according to the manufacturer protocol (Perkin Elmer-AlphaLisa IL-1β Kit AL220F-5000) • 8. IC50 data is fitted to a non-linear regression equation (log inhibitor vs response-variable slope 4-parameters)

[2] = target: T1, NLRP3; assay: THP-1 cells pyroptosis assay (LPS + nigericin, resazurin readout); type: cell-based; design: Seed THP-1 cells (25,000 cells/well) containing 1.0 μg/ml LPS in 40 μl of RPMI medium; host or cells: THP-1 cells; details: NLRP3 inhibitory activity, 1.0 μg/ml LPS, 5 μM nigericin
Method: THP-1 cells (ATCC #TIB-202) were grown in RPMI containing L-glutamine (Gibco #11835) supplemented with 1 mM sodium pyruvate (Sigma #S8636) and penicillin (100 units/ml)/streptomycin (0.1 mg/ml) (Sigma #P4333) in 10% Fetal Bovine Serum (FBS) (Sigma #F0804). The cells were routinely passaged and grown to confluency (˜10^6 cells/ml). On the day of the experiment, THP-1 cells were harvested and resuspended into RPMI medium (without FBS). The cells were then counted and viability (>90%) checked by Trypan blue (Sigma #T8154). Appropriate dilutions were made to give a concentration of 625,000 cells/ml. To this diluted cell solution was added LPS (Sigma #L4524) to give a […] Final Assay Concentration (FAC). 40 μl of the final preparation was aliquoted into each well of a 96-well plate. The plate thus prepared was used for compound screening.
The following method step-by-step assay was followed for compound screening. • 1. Seed THP-1 cells (25,000 cells/well) containing 1.0 μg/ml LPS in 40 μl of RPMI medium (without FBS) in 96-well, black walled, clear bottom cell culture plates coated with poly-D-lysine (VWR #734-0317) • 2. Add 5 μl compound (8 points half-log dilution, with 10 μM top dose) or vehicle (DMSO 0.1% FAC) to the appropriate wells • 3. Incubate for 3 hrs at 37° C. in 5% CO2 • 4. Add 5 μl nigericin (Sigma #N7143) (FAC 5 μM) to all wells • 5. Incubate for 1 hr at 37° C. and 5% CO2 • 6. At the end of the incubation period, spin plates at 300×g for 3 mins and remove supernatant • 7. Then add 50 μl of resazurin (Sigma #R7017) (FAC 100 μM resazurin in RPMI medium without FBS) and incubate plates for a further 1-2 hrs at 37° C. and 5% CO2 • 8. Plates were read in an Envision reader at Ex 560 nm and Em 590 nm • 9. IC50 data is fitted to a non-linear regression equation (log inhibitor vs response-variable slope 4-parameters)

pIC50 [1]	pIC50 [2]	SMILES
6.10 to 6.40	6.19 to 6.80	Cc1cc(-c2cc(F)cc(C(C)C)c2NC(=O)NS(=O)(=O)c2cc(CN(C)C)n(C)n2)n(C)n1 [Example 40, N-((2-(1,3-Dimethyl-1H-pyrazol-5-yl)-4-fluoro-6-isopropylphenyl)carbamoyl)-5-((dimethylamino)methyl)-1-methyl-1H-pyrazole-3-sulfonamide]
> 6.40	6.80 to 7.40	CC(C)c1cc(F)cc(-c2cccnc2)c1NC(=O)NS(=O)(=O)c1cc(CN(C)C)n(C)n1 [Example 41, 5-((Dimethylamino)methyl)-N-((4-fluoro-2-isopropyl-6-(pyridin-3-yl)phenyl)carbamoyl)-1-methyl-1H-pyrazole-3-sulfonamide]
5.80 to 6.10	6.19 to 6.80	CC(C)c1cc(F)cc(-c2cccc(C#N)c2)c1NC(=O)NS(=O)(=O)c1cc(CN(C)C)n(C(C)C)n1 [Example 45, N-((3′-Cyano-5-fluoro-3-isopropyl-[1,1′-biphenyl]-2-yl)carbamoyl)-5-((dimethylamino)methyl)-1-isopropyl-1H-pyrazole-3-sulfonamide]
> 6.40	6.80 to 7.40	CC(C)c1cc(F)cc(-c2cccc(C#N)c2)c1NC(=O)NS(=O)(=O)c1cc(CN(C)C)n(C)n1 [Example 46, N-((3′-Cyano-5-fluoro-3-isopropyl-[1,1′-biphenyl]-2-yl)carbamoyl)-5-((dimethylamino)methyl)-1-methyl-1H-pyrazole-3-sulfonamide]
> 6.40	6.80 to 7.40	COc1cc(-c2cc(F)cc(C(C)C)c2NC(=O)NS(=O)(=O)c2cc(CN(C)C)n(C(C)C)n2)ccn1 [Example 47, 5-((Dimethylamino)methyl)-N-((4-fluoro-2-isopropyl-6-(2-methoxypyridin-4-yl)phenyl)carbamoyl)-1-isopropyl-1H-pyrazole-3-sulfonamide]
> 6.40	> 7.40	COc1cc(-c2cc(F)cc(C(C)C)c2NC(=O)NS(=O)(=O)c2cc(CN(C)C)n(C)n2)ccn1 [Example 48, 5-((Dimethylamino)methyl)-N-((4-fluoro-2-isopropyl-6-(2-methoxypyridin-4-yl)phenyl)carbamoyl)-1-methyl-1H-pyrazole-3-sulfonamide]
> 6.40	6.19 to 6.80	CCn1nc(S(=O)(=O)NC(=O)Nc2c(C(C)C)cc(F)cc2C(C)C)cc1CN(C)C [Example 51, 5-((Dimethylamino)methyl)-1-ethyl-N-((4-fluoro-2,6-diisopropylphenyl)carbamoyl)-1H-pyrazole-3-sulfonamide]
6.10 to 6.40	> 7.40	CC(C)n1nc(S(=O)(=O)NC(=O)Nc2c3c(cc4c2CCC4)CCC3)cc1CN1CCC1 [Example 53, 5-(Azetidin-1-ylmethyl)-N-((1,2,3,5,6,7-hexahydro-s-indacen-4-yl)carbamoyl)-1-isopropyl-1H-pyrazole-3-sulfonamide]
6.10 to 6.40	6.19 to 6.80	CC(C)c1cc(F)cc(-c2cccnc2)c1NC(=O)NS(=O)(=O)c1cc(CN(C)C)n(C(C)C)n1 [Example 54, 5-((Dimethylamino)methyl)-N-((4-fluoro-2-isopropyl-6-(pyridin-3-yl)phenyl)carbamoyl)-1-isopropyl-1H-pyrazole-3-sulfonamide]
5.49 to 5.80	6.80 to 7.40	CC(C)c1cc(Cl)cc(C(C)C)c1NC(=O)NS(=O)(=O)c1cc(CN(C)C)n(C(C)C)n1 [Example 55, N-((4-Chloro-2,6-diisopropylphenyl)carbamoyl)-5-((dimethylamino)methyl)-1-isopropyl-1H-pyrazole-3-sulfonamide]
5.00 to 5.49	6.80 to 7.40	CC(C)n1nc(S(=O)(=O)NC(=O)Nc2c3c(cc4c2CCC4)CCC3)cc1CN(C)CC(F)F [Example 56, 5-(((2,2-Difluoroethyl)(methyl)amino)methyl)-N-((1,2,3,5,6,7-hexahydro-s-indacen-4-yl)carbamoyl)-1-isopropyl-1H-pyrazole-3-sulfonamide, Sodium Salt]
5.49 to 5.80	> 7.40	CC(C)n1nc(S(=O)(=O)NC(=O)Nc2c3c(cc4c2CCC4)CCC3)cc1CN(C)CCF [Example 57, 5-(((2-Fluoroethyl)(methyl)amino)methyl)-N-((1,2,3,5,6,7-hexahydro-s-indacen-4-yl)carbamoyl)-1-isopropyl-1H-pyrazole-3-sulfonamide, Sodium Salt]
5.80 to 6.10	6.80 to 7.40	CN(C)C1(c2cc(S(=O)(=O)NC(=O)Nc3c4c(cc5c3CCC5)CCC4)nn2C)CC1 [Example 58, 5-(1-(Dimethylamino)cyclopropyl)-N-((1,2,3,5,6,7-hexahydro-s-indacen-4-yl)carbamoyl)-1-methyl-1H-pyrazole-3-sulfonamide, Sodium Salt]
5.80 to 6.10	6.19 to 6.80	CN(C)CCc1cc(S(=O)(=O)NC(=O)Nc2c3c(cc4c2CCC4)CCC3)nn1C [Example 59, 5-(2-(Dimethylamino)ethyl)-N-((1,2,3,5,6,7-hexahydro-s-indacen-4-yl)carbamoyl)-1-methyl-1H-pyrazole-3-sulfonamide]
6.10 to 6.40	> 7.40	CN(C)C1CCCn2nc(S(=O)(=O)NC(=O)Nc3c4c(cc5c3CCC5)CCC4)cc21 (stereo not drawn) [Example 60, 4-(Dimethylamino)-N-((1,2,3,5,6,7-hexahydro-s-indacen-4-yl)carbamoyl)-4,5,6,7-tetrahydropyrazolo[1,5-a]pyridine-2-sulfonamide]
6.10 to 6.40	6.19 to 6.80	CCC(c1cc(S(=O)(=O)NC(=O)Nc2c(C(C)C)cc(F)cc2C(C)C)nn1C(C)C)N(C)C (stereo not drawn) [Example 62, 5-(1-(Dimethylamino)propyl)-N-((4-fluoro-2,6-diisopropylphenyl)carbamoyl)-1-isopropyl-1H-pyrazole-3-sulfonamide]
5.80 to 6.10	> 7.40	CCC(c1cc(S(=O)(=O)NC(=O)Nc2c(C(C)C)cc(Cl)cc2C(C)C)nn1C)N(C)C (stereo not drawn) [Example 64, N-((4-Chloro-2,6-diisopropylphenyl)carbamoyl)-5-(1-(dimethylamino)propyl)-1-methyl-1H-pyrazole-3-sulfonamide]
> 6.40	> 7.40	CCC(c1cc(S(=O)(=O)NC(=O)Nc2c(C(C)C)cc(F)cc2C(C)C)nn1C)N(C)C (stereo not drawn) [Example 65, 5-(1-(Dimethylamino)propyl)-N-((4-fluoro-2,6-diisopropylphenyl)carbamoyl)-1-methyl-1H-pyrazole-3-sulfonamide]
6.10 to 6.40	6.19 to 6.80	CC(C)c1cc(F)cc(-c2ccccc2)c1NC(=O)NS(=O)(=O)c1cc(CN(C)C)n(C)n1 [Example 66, 5-((Dimethylamino)methyl)-N-((5-fluoro-3-isopropyl-[1,1′-biphenyl]-2-yl)carbamoyl)-1-methyl-1H-pyrazole-3-sulfonamide]
6.10 to 6.40	6.80 to 7.40	CNCc1cc(S(=O)(=O)NC(=O)Nc2c3c(cc4c2CCC4)CCC3)nn1C [Example 67, N-((1,2,3,5,6,7-Hexahydro-s-indacen-4-yl)carbamoyl)-1-methyl-5-((methylamino)methyl)-1H-pyrazole-3-sulfonamide]
6.10 to 6.40	> 7.40	CC(C)n1nc(S(=O)(=O)NC(=O)Nc2c3c(cc4c2CCC4)CCC3)cc1CN(C)C [Example 68, 5-((Dimethylamino)methyl)-N-((1,2,3,5,6,7-hexahydro-s-indacen-4-yl)carbamoyl)-1-isopropyl-1H-pyrazole-3-sulfonamide]
